According to patent US11865091B2, “Supporting immunomodulatory agent” (Flexopharm Brain GMBH & Co. KG, priority 2014, dated 2024):
“Also recorded” adds a separate entry of the source.

Legend:
CD4+CD25+ Foxp3 cells = assay: Regulatory T cell levels in mouse EAE model; type: in vivo; settings: for proliferation and amount of regulatory T cells: in the intestines and blood
Description: FIG. 4: is a graph showing the effect of propionic acid diet initiated at the time of disease induction (DI) compared to a control group on levels of CD4+CD25+ Foxp3 cells in mouse EAE model.
FIG. 5 is a graph showing the effect of lauric acid diet (250 μM and 500 μM) initiated at the time of disease induction (DI) compared to a control group on levels of CD4+CD25+ Foxp3 cells in mouse EAE model.
(§1) Mice kept under standardized conditions were fed on a normal diet enriched with long-chain fatty acids (30.9% lauric acid) and additionally with 200 μl of propionate daily administered orally. The propionate was given either at the time of disease induction (DI) or at the onset of the disease (OD).
(§2) For the induction of EAE the mice were anesthetized and administered two subcutaneous injections of a 50 μl emulsion applied to the left and right tail basis and comprising a total of 200 μg MOG35-55 (myelin oligodendrocyte glycoprotein) and 200 μg Freund's adjuvant (CFA) with 4 mg/ml of M. tuberculosis. Pertussistoxin ([…]) was given intraperitoneally on day 0 and 2 after the induction. The clinical assessment took place on a daily basis using a 5-point scale (SEM). The assessment was as follows: • 0=normal • 1=Tail paralysis impairing raising • 2=Gait ataxia • 3=Paraparesis of hind legs • 4=Tetraparesis • 5=Death Mice showing SEM 4 or 5 were excluded.

intestinal microbiota = assay: Composition of the intestinal microbiome; type: in vivo, mice; settings: for effect on normal intestinal microbiota / number of bacteria degrading propionate and butyrate: intestinal microbiome
Description: The inventive acids, in particular propionic acid and butyric acid have an influence on the bowel physiology and the microbiome present there. In this way, they have an impact on the composition of the microbiome.

TH1 and TH17 cells = assay: Th1/Th17 cells in small intestine and central nervous system, EAE model; type: in vivo; settings: mouse EAE, lauric acid enriched diet
Description: (§3) Moreover, the aliphatic chain length of the carboxylic acids also affects the […] autoimmunity as well as the regulatory response of Treg in an in vivo mouse model.

Foxp3 = assay: Gene expression profiling of signature cytokines in EAE mice; type: in vivo, mouse; settings: EAE mice fed propionic acid
Description: as §3

TGFβ = assay: as above; type: in vivo, mouse; settings: EAE mice fed propionic acid
Description: as §3

IL-10 = assay: as above; type: in vivo, mouse; settings: EAE mice fed propionic acid
Description: as §3

[1] = tested on: experimental autoimmune encephalomyelitis (EAE); assay: Mouse EAE model: relative axonal density, demyelination of white matter, CD3+ cells; type: in vivo; settings: versus control group, FIG. 3
Description: FIG. 3: is a graph showing the effect of propionic acid diet initiated at the time of disease induction (DI) or at the time of onset of symptoms (OD) compared to a diet control group on relative axonal density, demyelination in the white matter, and CD3+ cells in the mouse EAE model.
as §1, §2
The influence of propionic acid on the relative axonal density, the demyelination of the white matter, and the number of CD3+-cells is shown in FIG. 3.

[2] = tested on: experimental autoimmune encephalomyelitis (EAE); assay: Mouse EAE model, daily clinical assessment on 5-point scale (SEM); type: in vivo
Description: as §1, §2

adiponectin = assay: Clinical study of sodium propionate, adiponectin levels; type: in vivo, human; settings: 4 weeks after administration had been terminated, FIG. 6 column C
Description: FIG. 6 is a graph showing the effect of administration of sodium propionate in a clinical study in ten patients on adiponectin levels.

CCCC(=O)O [butyric acid]
proliferation and amount of regulatory T cells (CD4+CD25+ Foxp3 cells): positive effect | effect on normal intestinal microbiota (intestinal microbiota): only slightly affected | number of bacteria degrading propionate and butyrate (intestinal microbiota): increases significantly

CCCCCCCCCCCC(=O)O [lauric acid, reference compound]
concentration dependence of the percentage reduction of CD4+CD25+ Foxp3 cells (CD4+CD25+ Foxp3 cells; lauric acid 250 μM and 500 μM, FIG. 5): dependent on concentration | CD4+CD25+ Foxp3 cells (CD4+CD25+ Foxp3 cells; lauric acid 250 μM and 500 μM, versus control value, FIG. 5): reduction | TH1 and TH17 cells in the small intestine (TH1 and TH17 cells): significant reduction | Th1/Th17 in the central nervous system (TH1 and TH17 cells): accumulation | number of Provotellaceae and some families of Phylum Bacteroidetes (intestinal microbiota; mice): reduce significantly

CCC(=O)O [propionic acid]
Foxp3 gene expression (Foxp3): increased values; also recorded: significant increase | TGFβ gene expression (TGFβ): increased values; also recorded: significant increase | IL-10 gene expression (IL-10): increased values; also recorded: significant increase | demyelination of the white matter [1]: significant improvement | number of CD3+ cells [1]: significant improvement | relative axonal density [1]: significant improvement | proliferation and amount of regulatory T cells (CD4+CD25+ Foxp3 cells): positive effect | number of regulatory T cells (CD4+CD25+ Foxp3+ Treg) (CD4+CD25+ Foxp3 cells; mouse EAE, propionic acid at disease induction (DI), versus control group, FIG. 4): significant increase | effect on normal intestinal microbiota (intestinal microbiota): only slightly affected | number of bacteria degrading propionate and butyrate (intestinal microbiota): increases significantly | disease course versus control group ([2]; propionic acid given on the day of onset of disease (OD), FIG. 2): significantly less favorable disease course | disease course versus control group ([2]; propionic acid given prophylactically (at disease induction, DI)): significant improvement

CCC(=O)[O-].[Na+] [sodium propionate]
duration of the adiponectin effect (adiponectin): lasts longer than the administration duration
